“And” between values parts separate entries of the source, which are not always exact repeats. Equal entries are not always repeated. Numbers after ± are expanded uncertainties.
Details: 343.15 K, Liquid, Vibrating tube method

CCCCCCC(=O)OCC(COC(=O)CCCCCC)(COC(=O)CCCCCC)COC(=O)CCCCCC [pentaerythritol tetraheptanoate]
Details	mass density
143.4 kPa	940.7 ± 1.1 kg/m3
144.1 kPa	940.6 ± 1.1 kg/m3
144.3 kPa	940.8 ± 1.1 kg/m3
144.8 kPa	940.7 ± 1.1 kg/m3 and 940.6 ± 1.1 kg/m3
145 kPa	940.6 ± 1.1 kg/m3 and 940.7 ± 1.1 kg/m3
145.7 kPa	940.7 ± 1.1 kg/m3
145.9 kPa	940.6 ± 1.1 kg/m3
146.2 kPa	940.6 ± 1.1 kg/m3
146.4 kPa	940.7 ± 1.1 kg/m3
146.9 kPa	940.6 ± 1.1 kg/m3
147.3 kPa	940.6 ± 1.1 kg/m3
147.6 kPa	940.7 ± 1.1 kg/m3
148.1 kPa	940.8 ± 1.1 kg/m3
148.5 kPa	940.7 ± 1.1 kg/m3
148.8 kPa	940.6 ± 1.1 kg/m3
149 kPa	940.7 ± 1.1 kg/m3
149.2 kPa	940.7 ± 1.1 kg/m3
149.7 kPa	940.6 ± 1.1 kg/m3
149.9 kPa	940.6 ± 1.1 kg/m3
150 kPa	940.7 ± 1.1 kg/m3
150.2 kPa	940.7 ± 1.1 kg/m3
150.4 kPa	940.8 ± 1.1 kg/m3
151.1 kPa	940.6 ± 1.1 kg/m3
151.3 kPa	940.7 ± 1.1 kg/m3
151.8 kPa	940.7 ± 1.1 kg/m3 and 940.6 ± 1.1 kg/m3
151.9 kPa	940.6 ± 1.1 kg/m3
152.5 kPa	940.7 ± 1.1 kg/m3
153 kPa	940.8 ± 1.1 kg/m3
153.2 kPa	940.8 ± 1.1 kg/m3
153.7 kPa	940.8 ± 1.1 kg/m3
153.9 kPa	940.7 ± 1.1 kg/m3
154.2 kPa	940.7 ± 1.1 kg/m3
154.9 kPa	940.7 ± 1.1 kg/m3
155.1 kPa	940.7 ± 1.1 kg/m3
155.6 kPa	940.7 ± 1.1 kg/m3
155.8 kPa	940.7 ± 1.1 kg/m3
155.9 kPa	940.8 ± 1.1 kg/m3
156.3 kPa	940.7 ± 1.1 kg/m3
156.8 kPa	940.7 ± 1.1 kg/m3
157 kPa	940.7 ± 1.1 kg/m3
157.5 kPa	940.7 ± 1.1 kg/m3
157.9 kPa	940.7 ± 1.1 kg/m3
158.2 kPa	940.7 ± 1.1 kg/m3
159.1 kPa	940.7 ± 1.1 kg/m3
159.2 kPa	940.8 ± 1.1 kg/m3
159.6 kPa	940.7 ± 1.1 kg/m3
159.9 kPa	940.7 ± 1.1 kg/m3
160.6 kPa	940.7 ± 1.1 kg/m3
161.3 kPa	940.7 ± 1.1 kg/m3
161.5 kPa	940.6 ± 1.1 kg/m3
162.2 kPa	940.6 ± 1.1 kg/m3
162.6 kPa	940.6 ± 1.1 kg/m3
163.3 kPa	940.8 ± 1.1 kg/m3
163.4 kPa	940.7 ± 1.1 kg/m3
163.9 kPa	940.7 ± 1.1 kg/m3
164.5 kPa	940.7 ± 1.1 kg/m3
164.8 kPa	940.7 ± 1.1 kg/m3
165.2 kPa	940.7 ± 1.1 kg/m3
165.7 kPa	940.7 ± 1.1 kg/m3
166.2 kPa	940.8 ± 1.1 kg/m3
166.7 kPa	940.6 ± 1.1 kg/m3
167.3 kPa	940.6 ± 1.1 kg/m3
167.9 kPa	940.6 ± 1.1 kg/m3
168.3 kPa	940.8 ± 1.1 kg/m3
168.6 kPa	940.7 ± 1.1 kg/m3
169.2 kPa	940.7 ± 1.1 kg/m3
169.9 kPa	940.6 ± 1.1 kg/m3
170.4 kPa	940.8 ± 1.1 kg/m3
170.9 kPa	940.6 ± 1.1 kg/m3
171.2 kPa	940.7 ± 1.1 kg/m3
171.8 kPa	940.6 ± 1.1 kg/m3
172.3 kPa	940.6 ± 1.1 kg/m3
172.8 kPa	940.7 ± 1.1 kg/m3
173 kPa	940.7 ± 1.1 kg/m3
173.2 kPa	940.7 ± 1.1 kg/m3
173.7 kPa	940.7 ± 1.1 kg/m3
174.4 kPa	940.6 ± 1.1 kg/m3
174.9 kPa	940.7 ± 1.1 kg/m3
175.2 kPa	940.6 ± 1.1 kg/m3
175.9 kPa	940.7 ± 1.1 kg/m3
176.5 kPa	940.8 ± 1.1 kg/m3
177.1 kPa	940.7 ± 1.1 kg/m3
178 kPa	940.7 ± 1.1 kg/m3
178.4 kPa	940.6 ± 1.1 kg/m3
178.9 kPa	940.7 ± 1.1 kg/m3
179.6 kPa	940.7 ± 1.1 kg/m3
180.8 kPa	940.7 ± 1.1 kg/m3
181.5 kPa	940.6 ± 1.1 kg/m3
182.2 kPa	940.7 ± 1.1 kg/m3
182.7 kPa	940.8 ± 1.1 kg/m3
183.2 kPa	940.7 ± 1.1 kg/m3
184.1 kPa	940.6 ± 1.1 kg/m3
184.8 kPa	940.8 ± 1.1 kg/m3
185.3 kPa	940.6 ± 1.1 kg/m3
185.8 kPa	940.8 ± 1.1 kg/m3
186.7 kPa	940.7 ± 1.1 kg/m3
187.1 kPa	940.6 ± 1.1 kg/m3
188.1 kPa	940.7 ± 1.1 kg/m3
188.8 kPa	940.6 ± 1.1 kg/m3
189.3 kPa	940.7 ± 1.1 kg/m3
190 kPa	940.8 ± 1.1 kg/m3
191.1 kPa	940.6 ± 1.1 kg/m3
191.7 kPa	940.6 ± 1.1 kg/m3
192.3 kPa	940.7 ± 1.1 kg/m3
193.1 kPa	940.6 ± 1.1 kg/m3
193.6 kPa	940.6 ± 1.1 kg/m3
194.3 kPa	940.7 ± 1.1 kg/m3
195.4 kPa	940.8 ± 1.1 kg/m3
196.1 kPa	940.8 ± 1.1 kg/m3
197.1 kPa	940.7 ± 1.1 kg/m3
197.7 kPa	940.8 ± 1.1 kg/m3
198.3 kPa	940.8 ± 1.1 kg/m3
199.4 kPa	940.6 ± 1.1 kg/m3
200.6 kPa	940.7 ± 1.1 kg/m3
201.5 kPa	940.8 ± 1.1 kg/m3
202.5 kPa	940.8 ± 1.1 kg/m3
203.4 kPa	940.7 ± 1.1 kg/m3
204.1 kPa	940.7 ± 1.1 kg/m3
205.3 kPa	940.7 ± 1.1 kg/m3
206 kPa	940.7 ± 1.1 kg/m3
206.9 kPa	940.9 ± 1.1 kg/m3
207.7 kPa	940.8 ± 1.1 kg/m3
208.6 kPa	940.7 ± 1.1 kg/m3
210 kPa	940.7 ± 1.1 kg/m3
211 kPa	940.6 ± 1.1 kg/m3
211.7 kPa	940.7 ± 1.1 kg/m3
212.8 kPa	940.9 ± 1.1 kg/m3
213.6 kPa	940.7 ± 1.1 kg/m3
214.8 kPa	940.7 ± 1.1 kg/m3
215.9 kPa	940.7 ± 1.1 kg/m3
217.1 kPa	940.8 ± 1.1 kg/m3
218 kPa	940.8 ± 1.1 kg/m3
219 kPa	940.7 ± 1.1 kg/m3
220.2 kPa	940.8 ± 1.1 kg/m3
222.7 kPa	940.7 ± 1.1 kg/m3
224.1 kPa	940.8 ± 1.1 kg/m3
225.1 kPa	940.7 ± 1.1 kg/m3
226.1 kPa	940.7 ± 1.1 kg/m3
227 kPa	940.8 ± 1.1 kg/m3
228.6 kPa	940.8 ± 1.1 kg/m3
229.8 kPa	940.8 ± 1.1 kg/m3
231 kPa	940.7 ± 1.1 kg/m3
232.2 kPa	940.7 ± 1.1 kg/m3
233.4 kPa	940.6 ± 1.1 kg/m3
234.5 kPa	940.7 ± 1.1 kg/m3
236.2 kPa	940.7 ± 1.1 kg/m3
237.9 kPa	940.8 ± 1.1 kg/m3
239.3 kPa	940.7 ± 1.1 kg/m3
241.1 kPa	940.7 ± 1.1 kg/m3
242 kPa	940.7 ± 1.1 kg/m3
243.9 kPa	940.6 ± 1.1 kg/m3
244.9 kPa	940.7 ± 1.1 kg/m3
246.3 kPa	940.8 ± 1.1 kg/m3
248 kPa	940.6 ± 1.1 kg/m3
250 kPa	940.7 ± 1.1 kg/m3
251 kPa	940.7 ± 1.1 kg/m3
252.9 kPa	940.8 ± 1.1 kg/m3
254.6 kPa	940.7 ± 1.1 kg/m3
255.8 kPa	940.8 ± 1.1 kg/m3
257.9 kPa	940.7 ± 1.1 kg/m3
259.5 kPa	940.8 ± 1.1 kg/m3
260.5 kPa	940.8 ± 1.1 kg/m3
262.3 kPa	940.8 ± 1.1 kg/m3
263.7 kPa	940.7 ± 1.1 kg/m3
265.9 kPa	940.8 ± 1.1 kg/m3
268 kPa	940.8 ± 1.1 kg/m3
269.6 kPa	940.6 ± 1.1 kg/m3
271.8 kPa	940.8 ± 1.1 kg/m3
273.9 kPa	940.8 ± 1.1 kg/m3
276.2 kPa	940.7 ± 1.1 kg/m3
277.7 kPa	940.7 ± 1.1 kg/m3
279.5 kPa	940.8 ± 1.1 kg/m3
281.6 kPa	940.7 ± 1.1 kg/m3
284.2 kPa	940.8 ± 1.1 kg/m3
287.1 kPa	940.8 ± 1.1 kg/m3
288.7 kPa	940.8 ± 1.1 kg/m3
291.3 kPa	940.8 ± 1.1 kg/m3
293.5 kPa	940.9 ± 1.1 kg/m3
295.8 kPa	940.7 ± 1.1 kg/m3
297.9 kPa	940.8 ± 1.1 kg/m3
302.9 kPa	940.9 ± 1.1 kg/m3
305.2 kPa	940.8 ± 1.1 kg/m3
308.3 kPa	940.8 ± 1.1 kg/m3
310.8 kPa	940.8 ± 1.1 kg/m3
314.1 kPa	940.9 ± 1.1 kg/m3
316.5 kPa	940.9 ± 1.1 kg/m3
319.1 kPa	940.8 ± 1.1 kg/m3
321.4 kPa	940.8 ± 1.1 kg/m3
324.7 kPa	940.8 ± 1.1 kg/m3
327.3 kPa	940.7 ± 1.1 kg/m3
330.2 kPa	940.7 ± 1.1 kg/m3
333.5 kPa	940.9 ± 1.1 kg/m3
336 kPa	940.7 ± 1.1 kg/m3
340 kPa	940.7 ± 1.1 kg/m3
343.3 kPa	940.9 ± 1.1 kg/m3
346.2 kPa	940.8 ± 1.1 kg/m3
349.4 kPa	940.8 ± 1.1 kg/m3
353.2 kPa	941 ± 1.1 kg/m3
356.5 kPa	940.7 ± 1.1 kg/m3
359.8 kPa	940.9 ± 1.1 kg/m3
364.3 kPa	940.9 ± 1.1 kg/m3
367.4 kPa	940.8 ± 1.1 kg/m3
371.8 kPa	940.8 ± 1.1 kg/m3
375.3 kPa	940.8 ± 1.1 kg/m3
378.9 kPa	940.8 ± 1.1 kg/m3
382.9 kPa	941 ± 1.1 kg/m3
387.8 kPa	940.9 ± 1.1 kg/m3
391.6 kPa	940.9 ± 1.1 kg/m3
395.9 kPa	940.9 ± 1.1 kg/m3
400.5 kPa	940.9 ± 1.1 kg/m3
405 kPa	940.9 ± 1.1 kg/m3
410.2 kPa	941 ± 1.1 kg/m3
414.7 kPa	941 ± 1.1 kg/m3
419.2 kPa	940.9 ± 1.1 kg/m3
423.8 kPa	940.9 ± 1.1 kg/m3
429.5 kPa	940.8 ± 1.1 kg/m3
434.5 kPa	940.9 ± 1.1 kg/m3
440.6 kPa	940.9 ± 1.1 kg/m3
445.7 kPa	940.9 ± 1.1 kg/m3
451.2 kPa	941 ± 1.1 kg/m3
457.5 kPa	941 ± 1.1 kg/m3
463.2 kPa	940.9 ± 1.1 kg/m3
468.9 kPa	940.8 ± 1.1 kg/m3
